Results published in patent publication US20060264460A1 (Wyeth, priority 2005, published 2006).

biological target: T1, human Cot/Tpl2 kinase (Homo sapiens, UniProt P41279); experiment: Tpl2/Cot kinase assay: GST-MEK1 phosphorylation detected by ELISA (DELFIA Eu); type: biochemical; details: 0.4 nM Tpl2, 35 nM GST-MEK1, 50 uM ATP, 1 h at 30° C.
T1 construct: human Cot/Tpl2 kinase construct encoding residues 30-398; 6His (N); made in house; host or cells: Sf9 insect cells, baculovirus system (BD Biosciences)
T1 sequence (P41279 30-398): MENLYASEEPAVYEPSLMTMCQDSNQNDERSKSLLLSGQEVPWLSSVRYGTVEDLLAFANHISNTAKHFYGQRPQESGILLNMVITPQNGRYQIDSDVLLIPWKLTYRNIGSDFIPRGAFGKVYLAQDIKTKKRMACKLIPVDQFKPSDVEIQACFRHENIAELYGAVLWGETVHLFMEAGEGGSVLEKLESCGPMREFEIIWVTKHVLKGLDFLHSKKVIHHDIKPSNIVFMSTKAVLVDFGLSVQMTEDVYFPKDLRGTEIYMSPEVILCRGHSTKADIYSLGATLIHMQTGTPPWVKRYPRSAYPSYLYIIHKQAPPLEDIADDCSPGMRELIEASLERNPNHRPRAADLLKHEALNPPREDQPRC
Outline: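 Substrate phosphorylation (GST-MEK1 Ser217/221) quantified by DELFIA europium ELISA, yielding IC50 values. Reaction: 1 h at 30° C, pH 7.2 MOPS buffer, 50 uM ATP, 35 nM GST-MEK1, 0.4 nM monomeric His-Tpl2 purified from Sf9 cells, compounds at 1% final DMSO; stopped with EDTA.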

| IC50 [nM] | SMILES |
| --- | --- |
| > 40000 | N#Cc1cnc2ccc(NCc3cnc(N4CCOCC4)s3)cc2c1Nc1ccc(F)c(Cl)c1 [Example 243, 4-[(3-chloro-4-fluorophenyl)amino]-6-{[(2-morpholin-4-yl-1,3-thiazol-5-yl)methyl]amino}quinoline-3-carbonitrile] |
| > 40000 | N#Cc1cnc2c(C(F)(F)F)cc(NCc3cnc(N4CCOCC4)s3)cc2c1Nc1ccc(F)c(Cl)c1 [Example 244, 4-[(3-chloro-4-fluorophenyl)amino]-6-{[(2-morpholin-4-yl-1,3-thiazol-5-yl)methyl]amino}-8-(trifluoromethyl)quinoline-3-carbonitrile] |
| 910 | N#Cc1cnc2ccc(NCc3cnc(S(=O)(=O)c4ccccc4)s3)cc2c1Nc1ccc(F)c(Cl)c1 [Example 245, 4-[(3-chloro-4-fluorophenyl)amino]-6-({[2-(phenylsulfonyl)-1,3-thiazol-5-yl]methyl}amino)quinoline-3-carbonitrile] |
| 2400 | N#Cc1cnc2ccc(NCc3cccnc3)cc2c1NC1CCCCCC1 [Example 246, 4-(cycloheptylamino)-6-[(pyridin-3-ylmethyl)amino]quinoline-3-carbonitrile] |
| 2500 | N#Cc1cccc(CNc2ccc3ncc(C#N)c(NC4CCCCCC4)c3c2)c1 [Example 247, 6-[(3-Cyanobenzyl)amino]-4-(cycloheptylamino)quinoline-3-carbonitrile] |
| 2500 | CS(=O)(=O)c1cccc(CNc2ccc3ncc(C#N)c(NC4CCCCCC4)c3c2)c1 [Example 248, 4-(cycloheptylamino)-6-{[3-(methylsulfonyl)benzyl]amino}quinoline-3-carbonitrile] |
| 380 | Cn1ccnc1CNc1ccc2ncc(C#N)c(NC3CCCCCC3)c2c1 [Example 249, 4-(cycloheptylamino)-6-{[(1-methyl-1H-imidazol-2-yl)methyl]amino}quinoline-3-carbonitrile] |
| 6800 | N#Cc1cnc2ccc(NCc3ccc(S(N)(=O)=O)cc3)cc2c1NC1CCCCCC1 [Example 250, 4-({[3-cyano-4-(cycloheptylamino)quinolin-6-yl]amino}methyl)benzenesulfonamide] |
| 650 | N#Cc1cnc2ccc(NCc3ccn[nH]3)cc2c1NC1CCCCCC1 [Example 251, 4-(cycloheptylamino)-6-[(1H-pyrazol-5-ylmethyl)amino]quinoline-3-carbonitrile] |
| 6100 | N#Cc1cnc2ccc(NCCN3CCOCC3)cc2c1NC1CCCCCC1 [Example 252, 4-(cycloheptylamino)-6-[(2-morpholin-4-ylethyl)amino]quinoline-3-carbonitrile] |
| 1400 | N#Cc1cnc2ccc(NCc3cccc[n+]3[O-])cc2c1NC1CCCCCC1 [Example 253, 4-(cycloheptylamino)-6-{[(1-oxidopyridin-2-yl)methyl]amino}quinoline-3-carbonitrile] |
| 19900 | Cc1nc2ccc(NCc3cnc[nH]3)cc2c(Nc2ccc(F)c(Cl)c2)c1C#N [Example 254, 4-[(3-chloro-4-fluorophenyl)amino]-6-[(1H-imidazol-5-ylmethyl)amino]-2-methylquinoline-3-carbonitrile] |
| > 40000 | Cc1nc2ccc(NCc3cccnc3)cc2c(Nc2ccc(F)c(Cl)c2)c1C#N [Example 255, 4-[(3-chloro-4-fluorophenyl)amino]-2-methyl-6-[(pyridin-3-ylmethyl)amino]quinoline-3-carbonitrile] |
| 310 | N#Cc1cnc2ccc(NC3CCCC3c3ccccn3)cc2c1Nc1ccc(F)c(Cl)c1 (centres unmarked) [Example 256, 4-[(3-chloro-4-fluorophenyl)amino]-6-[(2-pyridin-2-ylcyclopentyl)amino]quinoline-3-carbonitrile] |
| 370 | N#Cc1cnc2c(C(F)(F)F)cc(NCc3cccc[n+]3[O-])cc2c1Nc1ccc(F)c(Cl)c1 [Example 257, 4-[(3-chloro-4-fluorophenyl)amino]-6-{[(1-oxidopyridin-2-yl)methyl]amino}-8-(trifluoromethyl)quinoline-3-carbonitrile] |
| 270 | N#Cc1cnc2ccc(NCc3cccc(Br)n3)cc2c1Nc1ccc(F)c(Cl)c1 [Example 258, 6-{[(6-bromopyridin-2-yl)methyl]amino}-4-[(3-chloro-4fluorophenyl)amino]quinoline-3-carbonitrile] |
| > 40000 | N#Cc1cnc2c(C(F)(F)F)cc(NCc3cccc(Br)n3)cc2c1Nc1ccc(F)c(Cl)c1 [Example 259, 6-{[(6-Bromopyridin-2-yl)methyl]amino}-4-[(3-chloro-4-fluorophenyl)amino]-8-(trifluoromethyl)quinoline-3-carbonitrile] |
| 830 | CC(Nc1ccc2ncc(C#N)c(Nc3ccc(F)c(Cl)c3)c2c1)c1cnccn1 (centres unmarked) [Example 260, 4-[(3-chloro-4-fluorophenyl)amino]-6-[(1-pyrazin-2-ylethyl)amino]quinoline-3-carbonitrile] |
| > 40000 | Cn1nc(C(C)(C)C)cc1Nc1c(C#N)cnc2ccc(NCc3cnc[nH]3)cc12 [Example 261, 4-[(3-tert-butyl-1-methyl-1H-pyrazol-5-yl)amino]-6-[(1 H-imidazol-5-ylmethyl)amino]quinoline-3-carbonitrile] |

The remaining lines, values behind:

| SMILES | IC50 [nM] |
| --- | --- |
| Cc1cc2ncc(C#N)c(Nc3ccc(F)c(Cl)c3)c2cc1NCCN1CCOCC1 [Example 227, 4-[(3-chloro-4-fluorophenyl)amino]-7-methyl-6-[(2-morpholin-4-ylethyl)amino]quinoline-3-carbonitrile] | > 40000 |
| N#Cc1cnc2ccc(NCc3c[nH]c(=O)[nH]c3=O)cc2c1Nc1ccc(F)c(Cl)c1 [Example 228, 4-[(3-chloro-4-fluorophenyl)amino]-6-{[(2,4-dioxo-1,2,3,4-tetrahydropyrimidin-5-yl)methyl]amino}quinoline-3-carbonitrile] | 480 |
| N#Cc1cnc2c(C(F)(F)F)cc(NCc3cnc[nH]3)cc2c1Nc1ccc(F)c(Cl)c1 [Example 229, 4-[(3-chloro-4-fluorophenyl)amino]-6-[(1H-imidazol-5-ylmethyl)amino]-8-(trifluoromethyl)quinoline-3-carbonitrile] | 190 |
| N#Cc1cnc2c(C(F)(F)F)cc(NCc3cccnc3)cc2c1Nc1ccc(F)c(Cl)c1 [Example 230, 4-[(3-chloro-4-fluorophenyl)amino]-6-[(pyridin-3-ylmethyl)amino]-8-(trifluoromethyl)quinoline-3-carbonitrile] | > 40000 |
| N#Cc1cnc2c(C(F)(F)F)cc(NCc3ccccn3)cc2c1Nc1ccc(F)c(Cl)c1 [Example 231, 4-[(3-chloro-4-fluorophenyl)amino]-6-[(pyridin-2-ylmethyl)amino]-8-(trifluoromethyl)quinoline-3-carbonitrile] | 19700 |
| N#Cc1cccc(CNc2cc(C(F)(F)F)c3ncc(C#N)c(Nc4ccc(F)c(Cl)c4)c3c2)c1 [Example 232, 4-[(3-chloro-4-fluorophenyl)amino]-6-[(3-cyanobenzyl)amino]-8-(trifluoromethyl)quinoline-3-carbonitrile] | 24000 |
| N#Cc1ccccc1CNc1cc(C(F)(F)F)c2ncc(C#N)c(Nc3ccc(F)c(Cl)c3)c2c1 [Example 233, 4-[(3-chloro-4-fluorophenyl)amino]-6-[(2-cyanobenzyl)amino]-8-(trifluoromethyl)quinoline-3-carbonitrile] | > 40000 |
| N#Cc1ccc(CNc2cc(C(F)(F)F)c3ncc(C#N)c(Nc4ccc(F)c(Cl)c4)c3c2)cc1 [Example 234, 4-[(3-chloro-4-fluorophenyl)amino]-6-[(4-cyanobenzyl)amino]-8-(trifluoromethyl)quinoline-3-carbonitrile] | 15100 |
| N#Cc1cnc2c(C(F)(F)F)cc(NCc3ccccc3F)cc2c1Nc1ccc(F)c(Cl)c1 [Example 235, 4-[(3-chloro-4-fluorophenyl)amino]-6-[(2-fluorobenzyl)amino]-8-(trifluoromethyl)quinoline-3-carbonitrile] | > 40000 |
| Cn1ccnc1CNc1cc(C(F)(F)F)c2ncc(C#N)c(Nc3ccc(F)c(Cl)c3)c2c1 [Example 236, 4-[(3-chloro-4-fluorophenyl)amino]-6-{[(1-methyl-1H-imidazol-2-yl)methyl]amino}-8-(trifluoromethyl)quinoline-3-carbonitrile] | 200 |
| N#Cc1cnc2c(C(F)(F)F)cc(NCc3cccn3S(=O)(=O)c3ccccc3)cc2c1Nc1ccc(F)c(Cl)c1 [Example 237, 4-[(3-chloro-4-fluorophenyl)amino]-6-({[1-(phenylsulfonyl)-1H-pyrrol-2-yl]methyl}amino)-8-(trifluoromethyl)quinoline-3-carbonitrile] | 24800 |
| Cc1cc(CNc2cc(C(F)(F)F)c3ncc(C#N)c(Nc4ccc(F)c(Cl)c4)c3c2)oc1C [Example 238, 4-[(3-chloro-4-fluorophenyl)amino]-6-{[(4,5-dimethyl-2-furyl)methyl]amino}-8-(trifluoromethyl)quinoline-3-carbonitrile] | 8400 |
| N#Cc1cnc2c(C(F)(F)F)cc(NCc3cncs3)cc2c1Nc1ccc(F)c(Cl)c1 [Example 239, 4-[(3-chloro-4-fluorophenyl)amino]-6-[(1,3-thiazol-5-ylmethyl)amino]-8-(trifluoromethyl)quinoline-3-carbonitrile] | 780 |
| N#Cc1cnc2c(C(F)(F)F)cc(NCc3cncnc3)cc2c1Nc1ccc(F)c(Cl)c1 [Example 240, 4-[(3-chloro-4-fluorophenyl)amino]-6-[(pyrimidin-5-ylmethyl)amino]-8-(trifluoromethyl)quinoline-3-carbonitrile] | 190 |
| COc1ncc(CNc2cc(C(F)(F)F)c3ncc(C#N)c(Nc4ccc(F)c(Cl)c4)c3c2)c(OC)n1 [Example 241] | > 40000 |
| N#Cc1cnc2c(C(F)(F)F)cc(NCc3cnc(S(=O)(=O)c4ccccc4)s3)cc2c1Nc1ccc(F)c(Cl)c1 [Example 242, 4-[(3-chloro-4-fluorophenyl)amino]-6-({[2-(phenylsulfonyl)-1,3-thiazol-5-yl]methyl}amino)-8-(trifluoromethyl)quinoline-3-carbonitrile] | > 40000 |
